For 5 compounds, IC50 results are on record in patent US7919487B2, “Heteroaryl compounds” (Synta Pharmaceuticals Corporation, priority 2004, dated 2011).

Each structure is given as a SMILES string.

The test system of this experiment is IL-12 production in human PBMC or THP-1 cells. In words: Human in vitro assay: inhibition of IL-12 production in human PBMC or THP-1 cells (ELISA). The experiment is classed as cell-based. Conditions: THP-1, human PBMC or THP-1 cells, IFNγ plus LPS or SAC stimulation, representative in vitro data. The source says: The biological activities of the compounds of the invention can be evaluated by a number of cell-based assays. One of such assays can be conducted using cells from human peripheral blood mononuclear cells (PBMC) or human monocytic cell line (THP-1). The cells are stimulated with a combination of human interferon-γ (IFNγ) and lipopolysaccharide or a combination of IFNγ and Staphylococcus aureus Cowan I in the presence of a test compound. The level of inhibition of IL-12 production can be measured by determining the amount of p70 by using a sandwich ELISA assay with anti-human IL-12 antibodies. IC50 of the test compound can then be determined. Specifically, PBMC or THP-1 cells are incubated with the test compound. Cell viability was assessed using the bioreduction of MTS [3-(4,5-dimethylthiazol-2-yl)-5-(3-carboxymethoxyphenyl)-2-(4-sulfophenyl)-2H-tetrazolium] (Promega, Madison, Wis.).
Reagents. Staphylococcus aureus Cowan I (SAC) was obtained from Calbiochem (La Jolla, Calif.), and lipopolysaccharide (LPS, Serratia marscencens) was obtained from Sigma (St Louis, Mo.). Human and mouse recombinant IFNγ were purchased from Boehringer Mannheim (Mannheim, Germany) and Pharmingen (San Diego, Calif.), respectively.
Human In Vitro Assay. Human PBMC were isolated by centrifugation using Ficoll-Paque (Pharmacia Biotech, Uppsala, Sweden) and prepared in RPMI medium supplemented with 10% fetal calf serum (FCS), 100 U/mL penicillin, and 100 μg/mL streptomycin. PBMC were plated in wells of a 96-well plate at a concentration of 5×10^5 cells/well, and primed by adding IFNγ (30 U/mL) for 22 h and stimulated by adding LPS (1 μg/mL), or by adding IFNγ (100 U/mL) and then stimulated by adding SAC (0.01%). A test pyrimidine compound was dissolved in DMSO, and added to wells of the 96-well plate. The final DMSO concentration was adjusted to 0.25% in all cultures, including the compound-free control. Human THP-1 cells were plated in wells, primed by adding IFNγ (100 U/mL) for 22 h and stimulated by adding SAC (0.025%) in the presence of different concentrations of the pyrimidine compound. Cell-free supernatants were taken 18 h later for measurement of cytokines. Cell viability was assessed using the bioreduction of MTS. Cell survival was estimated by determining the ratio of the absorbance in compound-treated groups versus compound-free control.
The supernatant was assayed for the amount of IL-12p40, IL-12p70, or IL-10 by using a sandwich ELISA with anti-human antibodies, i.e., a Human IL-12 p40 ELISA kit from R&D Systems (Berkeley, Calif.), and a Human IL-12 p70 or IL-10 ELISA kit from Endogen (Cambridge, Mass.). Assays were based on the manufacturer's instructions.
The biological activities of compounds were tested on human PBMC or THP-1 cells.
As for `Cc1cccc(/C=N/Nc2nc(N)nc(-c3cccnc3)n2)c1` [Compound 143, (E)-4-(2-(3-methylbenzylidene)hydrazinyl)-6-(pyridin-3-yl)-1,3,5-triazin-2-amine], the IC50 was over 1 µM. As to `CSc1nc(NC(=O)Nc2cccc(C)c2)nc(-c2ccncc2)n1` [Compound 144, 1-(4-(methylthio)-6-(pyridin-4-yl)-1,3,5-triazin-2-yl)-3-m-tolylurea], the IC50 was found to be 0.128 µM. For `CSc1nc(NC(=O)Nc2cccc(C)c2)nc(-c2cccnc2)n1` [Compound 145, 1-(4-(methylthio)-6-(pyridin-3-yl)-1,3,5-triazin-2-yl)-3-m-tolylurea] the value was over 1 µM. As for `Cc1[nH]c2ccc(NC(=O)c3cc(NCCN4CCOCC4)nc(N(C)C)n3)cc2c1C` [Compound 147, N-(2,3-dimethyl-1H-indol-5-yl)-2-(dimethylamino)-6-(2-morpholinoethylamino)pyrimidine-4-carboxamide], the IC50 is over 1 µM. Regarding `Cc1[nH]c2ccc(NC(=O)c3cc(NCCN4CCOCC4)nc(N4CCSC4)n3)cc2c1C` [Compound 148, N-(2,3-dimethyl-1H-indol-5-yl)-6-(2-morpholinoethylamino)-2-(thiazolidin-3-yl)pyrimidine-4-carboxamide], the IC50 is 0.055 µM.

In general, IC50 refers to the point on the concentration scale where inhibition reaches its midpoint.
